Measurements published in publication PMC5786306, “An AKAP-Lbc-RhoA interaction inhibitor promotes the translocation of aquaporin-2 to the plasma membrane of renal collecting duct principal cells” (PLoS ONE, 2018).
“Also recorded” adds a separate entry of the source.

Columns and labels:
[1] = tested on: AKAP-Lbc-mediated activation of RhoA in HEK293 cells; test: SRE luciferase reporter assay, AKAP-Lbc expressed; format: cell-based, human; details: Scaff10
Protocol: (§1) Luciferase reporter gene assays were performed with the Dual Luciferase Reporter Assay System (Promega) according to manufactures protocol and as previously reported. In brief, HEK293 cells were seeded and co-transfected with the indicated plasmids together with pSRE.L reporter plasmid encoding firefly luciferase (kindly provided from Dr J. Mao and Dr. D. Wu, Rochester, NY) and pRL-TK control vector (Promega, Mannheim, Germany) encoding renilla luciferase. The transfected cells were further cultured in DMEM with 0.5% FCS for 24 h, lysed with passive lysis buffer (Promega). Luciferase activities was measured an Envision Instrument (Perkin Elmer, Rodgau, Germany) in white 96-well plates. […] In Western blots, the protein was detected with primary polyclonal antibody (rabbit; Gramsch, 1:1000). […] AKAP-Lbc was detected with a specific anti-AKAP-Lbc antibody (Abcam; #ab99377; 1:1000). […]
(§2) Fig 7 Scaff10-8 inhibits the AKAP-Lbc-mediated activation of RhoA in cells. […] Statistically significant differences were determined applying one-way ANOVA with posthoc Bonferroni. […]
(§3) in luciferase activity induced by other GEFs. n=3; statistically significant differences were not found, as confirmed by statistical analysis using ANOVA. […] The fraction of active RhoA was determined using Rhotekin pulldown assays as described. […]

[2] = tested on: RhoA activation by other RhoGEFs (p63RhoGEF, Duet, Trio, LARG, Ost1, PDZRhoGEF and others) in HEK293 cells; test: SRE luciferase reporter assay, other RhoGEFs expressed; format: cell-based, human; details: Scaff10 50 μM
Protocol: as §1, §2, §3

[3] = target: T1, GST-RhoA (F25N), GDP- or GTPγS-bound (Homo sapiens, UniProt P61586, F25N); test: Isothermal titration calorimetry (ITC) with GST-RhoA; format: binding
T1 construct: made in house
T1 sequence (P61586 whole entry F25N): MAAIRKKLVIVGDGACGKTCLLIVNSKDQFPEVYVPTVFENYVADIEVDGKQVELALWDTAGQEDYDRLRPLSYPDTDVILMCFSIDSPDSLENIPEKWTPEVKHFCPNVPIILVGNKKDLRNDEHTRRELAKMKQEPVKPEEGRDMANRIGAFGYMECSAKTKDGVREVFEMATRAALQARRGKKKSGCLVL
Protocol: ITC measurements were essentially carried out as previously described. The stabilizing RhoA mutant F25N [41] was purified as a GST-RhoA fusion in its GDP-bound form (final gel filtration purification step in 20 mM HEPES, pH 7.5, 150 mM NaCl, 2 mM DTT, 50 μM GDP). In order to exchange GDP against GTPγS, GST-RhoA loaded with GDP was incubated for 20 min in ITC nucleotide exchange buffer (50 mM HEPES, pH 7.5, 20 mM EDTA) at 25°C followed by three dilution and concentration steps in Amicon tubes (10,000 MWCO) using ITC dialysis buffer (50 mM HEPES, pH 7.4, 150 mM NaCl, 5 mM MgCl2, 2 mM β-mercaptoethanol). The nucleotide-loading state was confirmed by HPLC. All proteins used in ITC measurements were dialyzed overnight against ITC dialysis buffer. Protein concentrations were determined with NanoDrop ND-1000. GDP or GTPγS (final concentration 2 mM) and DMSO (2%) were added to the proteins prior to the ITC measurements. Scaff10-8 was dissolved in the same buffer (including 2% DMSO and 2 mM GDP or GTPγS). ITC measurements were performed on a VP-ITC (GE Healthcare, München, DE) at 15°C. Titrations were conducted using 14.8 μM Scaff10-8 in the cell and 235 μM (GST control), 222 μM (GST-RhoA, GDP-bound) or 210 μM (GST-RhoA, GTPγS-bound) in the syringe. The cell was stirred at 351 rpm and a total of 27 x 10 μl injections were added to the cell, separated by 240 s of equilibration. The data were fitted using the Microcal Origin software (version 7.0) and a one-site binding model. We consistently observed a binding number close to N = 0.5 (RhoA/Scaff10-8). This observation may be due to the binding of two molecules of Scaff10-8 per one molecule of GST-RhoA for both the GDP-bound and GTPγS-bound form of GST-RhoA, or due to some inaccuracy in the determination of protein or compound concentrations. The data were thus fitted using a fixed binding number of N = 0.5.

Row | Compound | AKAP-Lbc-mediated activation of RhoA (SRE luciferase activity) [1] | luciferase activity induced by other GEFs [2] | KD for GST-RhoA loaded with GDP ([3]; 15°C, 2 mM GDP, fixed N = 0.5) [µM] | KD for GST-RhoA loaded with GTPγS ([3]; 15°C, 2 mM GTPγS, fixed N = 0.5) [µM] | binding number N (RhoA/Scaff10-8) ([3]; GDP- and GTPγS-bound forms)
1 | COc1ccc(-c2coc3cc4oc(=O)c(C)c(C)c4cc23)cc1 [Scaff10, 3-(4-Methoxyphenyl)-5,6-dimethyl-furo[3,2-g]chromen-7-one] | selectively inhibited; also recorded: concentration-dependently inhibits | does not affect |  |  | 
2 | COc1ccc(-c2coc3cc4oc(=O)c(CCC(=O)O)c(C)c4cc23)cc1 [Scaff10-8, 3-[3-(4-Methoxyphenyl)-5-methyl-7-oxo-furo[3,2-g]chromen-6-yl] propanoic acid] |  |  | 20 ± 1 | 38 ± 4 | ~0.5
